Data taken from paper PMC10791743, “Selective CK1α degraders exert antiproliferative activity against a broad range of human cancer cell lines” (Nature Communications, 2024).
“And” between values parts separate entries of the source, which are not always exact repeats. Equal values may be shown once. Read-outs that look alike come from different tables or passages of the source.

Assays:
MOLM-13 cells = experiment: TMT quantitative proteomics in MOLM-13; assay type: cell-based, human; conditions: for Proteins with significantly reduced abundance (TMT proteomics): 1 μM; for TMT protein intensity, CDKN1A, replicate values: DMSO 3.10E+04, 3.47E+04; for TMT protein intensity, CSNK1A1, replicate values: DMSO 4.01E+05, 4.09E+05
Method: We next carried out a tandem mass tag (TMT) quantitative proteomics experiment[30] to identify the neosubstrates whose degradation is induced by SJ7095. […] We confirmed the proteomics results by immunoblot analysis of CK1α in MOLM-13 cells following treatment with increasing concentrations of SJ7095 over 4 h (Fig. 2b). Under these conditions compound SJ7095 induced dose-dependent reduction of CK1α protein levels with DC50 value of 15 nM.
Each compound was tested in three wells of 2 million MOLM-13 cells each. […] Cells were then collected and washed with DPBS. Washed cells were centrifuged at 400×g for 5 min at 4 °C, the supernatant was removed, and pellets were snap frozen in liquid nitrogen and stored at −80 °C until sample submission.
The experiment was performed with a previously optimized protocol[30] with slight modification. Cell pellets were lysed in lysis buffer (50 mM HEPES, pH 8.5, 8 M urea, and 0.5% sodium deoxycholate). To profile the whole proteome, the protein lysates (approximately 100 µg of protein per sample) were proteolyzed with LysC (Wako) at an enzyme-to-substrate ratio of 1:100 (w/w) for 2 h at 21 °C. Following this the samples were diluted to a final 2 M Urea concentration, and further digested with trypsin (Promega) at an enzyme-to-substrate ratio of 1:50 (w/w) for at least 3 h. The peptides were reduced by adding 1 mM DTT for 30 min at 21 °C followed by alkylation with 10 mM iodoacetamide (IAA) for 30 min in the dark. The unreacted IAA was quenched with 30 mM DTT for 30 min. Finally, the digestion was stopped by adding trifluoroacetic acid (TFA) to 1%, desalted using C18 cartridges (Harvard Apparatus), and dried by speedvac. The purified peptides were resuspended in 50 mM HEPES (pH 8.5), and labeled with TMT reagents (Thermo Scientific). The differentially labeled samples were pooled equally, desalted, and dried for the subsequent peptide fractionation. Peptide analysis by two-dimensional liquid chromatography–tandem mass spectrometry (LC/LC–MS/MS) and MS data analysis are described in Supplementary Material. […]
Identification/quantification of proteins
The MS/MS raw data were processed by a tag-based hybrid search engine, JUMP7. The data was […]
concatenated with a reversed decoy database for evaluating False Discovery Rate (FDR). Searches were performed using a 15 ppm mass tolerance for precursor ions, fully tryptic restriction with two maximal missed cleavages, three maximal modification sites, and the assignment of b, and y ions.
TMT tags on lysine residues and N-termini (+304.2071453 Da for TMT16 and TMT18) were used for static modifications. In addition, oxidation of Methionine (Met) was considered as a dynamic modification (+15.99492 Da). Putative peptide spectral matches (PSMs) were filtered by mass accuracy and then grouped by precursor ion charge state and further filtered by JUMP-based matching scores, Jscore and ΔJn, to achieve the protein FDR below 1%. For quantification, TMT intensities of reporter ions were extracted, filtered, normalized, and summarized into peptide and […]
Differential expression analysis of proteins
Identification of differentially expressed proteins were conducted by the limma R package8. To control multiple testing, the Benjamini-Hochberg method was employed. Proteins with an adjusted […]
p value of < 0.05 and log2 fold change of > 2-fold of standard deviation (SD) were defined as differentially expressed. […]

CK1α = CK1α (Homo sapiens, UniProt P48729+Q96SW2); experiment: CK1α immunoblotting in MOLM-13 cells; assay type: cell-based; parameters: immunoblot analysis of CK1α in MOLM-13 cells following treatment with increasing concentrations of SJ7095 over 4 h; endogenous in cells; host or cells: MOLM-13 (DSMZ ACC 554); conditions: for Dmax: read-out: CK1α Dmax (immunoblot); for CK1a western blot quantification: CK1a data from blots in fig 2b
Method: Frozen pellets of ~1 million cells were lysed in 150 µl of SDS lysis buffer (60 mM Tris/HCl pH 7, 10% glycerol, 2% SDS, 5% beta-mercaptoethanol, 0.02% bromophenol blue, 0.5% protease and phosphatase inhibitor cocktail (Sigma Aldrich)). When cells were resuspended, samples were heated for 3 min at 99 °C then put on ice. Samples were then fragmented by sonication for 10 0.5-s pulses (550 Sonic Dismembrator, Fisher Scientific) and heated again at 99 °C for 2 min. 15 μl of each sample was added to the wells of a 4–20% polyacrylamide gel (Bio-Rad). A mixture of 2 μl of Precision Plus Protein Unstained Standards and 2 μl of Precision Plus Protein All Blue Standards (Bio-Rad) was used for the size marker. After electrophoresis, gels were transferred to nitrocellulose membrane using the Bio-Rad Trans-Blot Turbo system on the mixed molecular weight setting. Membranes were blocked for 1 h in Li-Cor Intercept Blocking Buffer then probed overnight at 4 °C with primary antibody, at 1:1000 dilution or 1:2000 dilution for actin, in Li-Cor Intercept Antibody Diluent. The following morning, membranes were washed three times for 5 min with TBS + 0.05% Tween-20, probed with fluorescent secondary antibodies (goat anti-rabbit IRDye 800CW and goat anti-mouse IRDye 680RD, Li-Cor) for 1 h at room temperature in the dark at 1:10,000 dilution, and washed again 3 times. Blots were imaged with the Li-Cor Odyssey CLx and analyzed using Image Studio Version 5.2.

[1] = MOLM-13, 4 h, read-out: CK1α DC50 (immunoblot)
[2] = time course 0-8 hrs, relative to no treatment
[3] = western blot quantification, relative to DMSO

CK1α, sequence (P48729 whole entry, the tested form may be a part): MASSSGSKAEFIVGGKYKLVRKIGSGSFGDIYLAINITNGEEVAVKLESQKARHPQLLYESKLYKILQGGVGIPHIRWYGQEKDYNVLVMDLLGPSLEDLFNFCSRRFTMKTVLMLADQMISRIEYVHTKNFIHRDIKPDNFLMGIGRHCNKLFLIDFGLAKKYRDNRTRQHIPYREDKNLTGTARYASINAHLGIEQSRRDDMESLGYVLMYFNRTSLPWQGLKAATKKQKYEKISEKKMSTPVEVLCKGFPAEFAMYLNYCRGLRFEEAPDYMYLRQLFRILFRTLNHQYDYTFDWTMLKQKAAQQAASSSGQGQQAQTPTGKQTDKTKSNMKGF
CK1α, sequence (Q96SW2 whole entry, the tested form may be a part): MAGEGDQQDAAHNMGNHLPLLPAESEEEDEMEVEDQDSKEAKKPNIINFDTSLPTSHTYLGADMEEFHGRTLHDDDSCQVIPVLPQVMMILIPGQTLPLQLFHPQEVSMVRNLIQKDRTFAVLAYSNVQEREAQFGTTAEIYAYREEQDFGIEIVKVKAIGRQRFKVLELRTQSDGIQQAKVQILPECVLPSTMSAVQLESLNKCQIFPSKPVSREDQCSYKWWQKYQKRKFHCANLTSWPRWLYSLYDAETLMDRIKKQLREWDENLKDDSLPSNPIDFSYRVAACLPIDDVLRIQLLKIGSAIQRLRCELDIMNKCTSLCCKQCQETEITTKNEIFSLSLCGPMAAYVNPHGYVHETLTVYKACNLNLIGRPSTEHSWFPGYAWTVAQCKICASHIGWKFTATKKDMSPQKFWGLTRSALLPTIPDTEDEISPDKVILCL
CK1α, sequence (Q16531 whole entry partner, the tested form may be a part): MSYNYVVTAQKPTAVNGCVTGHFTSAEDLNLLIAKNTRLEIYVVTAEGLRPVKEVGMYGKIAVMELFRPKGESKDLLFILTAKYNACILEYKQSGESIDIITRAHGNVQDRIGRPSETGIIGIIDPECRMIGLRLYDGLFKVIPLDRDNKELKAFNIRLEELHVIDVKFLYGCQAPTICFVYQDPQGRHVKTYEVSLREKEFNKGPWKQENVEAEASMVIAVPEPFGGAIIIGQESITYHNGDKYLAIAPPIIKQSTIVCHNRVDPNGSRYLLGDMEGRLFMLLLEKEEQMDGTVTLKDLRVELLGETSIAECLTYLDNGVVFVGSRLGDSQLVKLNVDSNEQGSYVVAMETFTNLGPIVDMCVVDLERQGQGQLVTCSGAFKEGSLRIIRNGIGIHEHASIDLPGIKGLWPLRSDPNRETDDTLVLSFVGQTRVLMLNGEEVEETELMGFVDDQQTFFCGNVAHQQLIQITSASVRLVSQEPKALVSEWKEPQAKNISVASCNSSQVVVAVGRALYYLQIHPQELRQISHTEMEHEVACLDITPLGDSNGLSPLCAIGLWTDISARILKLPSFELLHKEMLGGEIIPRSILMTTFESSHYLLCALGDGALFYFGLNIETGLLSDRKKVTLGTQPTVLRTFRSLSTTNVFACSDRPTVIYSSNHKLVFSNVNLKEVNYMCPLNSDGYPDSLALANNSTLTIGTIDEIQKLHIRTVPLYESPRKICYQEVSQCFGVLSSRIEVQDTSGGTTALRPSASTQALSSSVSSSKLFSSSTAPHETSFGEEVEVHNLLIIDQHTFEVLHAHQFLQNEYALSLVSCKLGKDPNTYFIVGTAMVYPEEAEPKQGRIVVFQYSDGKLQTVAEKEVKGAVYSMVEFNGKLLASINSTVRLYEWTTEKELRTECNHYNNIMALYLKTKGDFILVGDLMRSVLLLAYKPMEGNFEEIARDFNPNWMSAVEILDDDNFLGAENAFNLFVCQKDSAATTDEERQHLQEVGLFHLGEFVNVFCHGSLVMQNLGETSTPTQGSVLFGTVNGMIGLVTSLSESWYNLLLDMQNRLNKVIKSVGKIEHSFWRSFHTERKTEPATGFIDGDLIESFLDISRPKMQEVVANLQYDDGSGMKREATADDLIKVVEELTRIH

## Cc1cccc(C(=O)Nc2ccc3c(c2)CN(C2CCC(=O)NC2=O)C3=O)c1 (centres unmarked) [SJ0040]
MOLM-13 cells; 4 h
  Proteins with significantly reduced abundance (TMT proteomics): significantly reduced the abundance of only CK1α out of >9000 proteins
MOLM-13 cells; 1uM, 4h
  Log2FC vs. DMSO, BHLHE40: 0.522
  Log2FC vs. DMSO, CSNK1A1: -1.896
CK1α; [1]
  DC50: 11 nM
CK1α; MOLM-13, 4 h
  Dmax: 88%

## O=C1CCC(N2Cc3cc(Nc4noc5ccccc45)ccc3C2=O)C(=O)N1 (centres unmarked) [SJ3149]
MOLM-13 cells; 4 h
  Proteins with significantly reduced abundance (TMT proteomics): significantly reduced the abundance of only CK1α out of >9000 proteins
MOLM-13 cells; 1uM, 4h
  Log2FC vs. DMSO, CSNK1A1: -0.851
  Log2FC vs. DMSO, CTNNB1: 1.473
CK1α; MOLM-13, 1 μM, 0-8 h
  CK1α protein, time course: near complete loss of CK1α protein by 1 h
CK1α; [1]
  DC50: 3.7 nM and 4 nM
CK1α; MOLM-13, 4 h
  Dmax: 95%
CK1α; SJ3149 0.001 uM, relative to DMSO
  CK1a western blot quantification: 0.9925 and 0.9819 and 0.7065
CK1α; SJ3149 0.01 uM, relative to DMSO
  CK1a western blot quantification: 0.3125 and 0.2648 and 0.1727
CK1α; SJ3149 0.1 uM, relative to DMSO
  CK1a western blot quantification: 0.1087 and 0.1074 and 0.06013
CK1α; time 8 hrs, relative to no treatment, 3 western blots
  CK1a quantified protein expression (western blot): 0.0615 and 0.09529 and 0.04877
CK1α; time course 0-8 hrs, X axis is time
  IC50 (line fit, sigmoidal 4PL) of CK1a expression versus time: 0.403
CK1α; [2]
  Bottom (line fit, sigmoidal 4PL) of CK1a expression versus time: 0.04517
  Top (line fit, sigmoidal 4PL) of CK1a expression versus time: 0.8089
CK1α; western blot quantification, blots in fig 2b, read-out: IC50 (sigmoidal 4PL fit) of CK1a protein level
  DC50: 3.75 nM
CK1α; [3]
  Bottom (sigmoidal 4PL fit) of CK1a protein level: 0.07909
  Top (sigmoidal 4PL fit) of CK1a protein level: 1.004

## O=C1CCC(N2Cc3c(CNC(=O)c4ccc(F)cc4)cccc3C2=O)C(=O)N1 (centres unmarked) [SJ7095]
MOLM-13 cells; 1uM, 4h
  Log2FC vs. DMSO, CDKN1A (Cyclin-dependent kinase inhibitor 1): 1.031
  Log2FC vs. DMSO, CSNK1A1 (Casein kinase I isoform alpha): -1.331
  TMT protein intensity, CDKN1A, replicate values: 6.19E+04 and 7.24E+04
  TMT protein intensity, CSNK1A1, replicate values: 1.55E+05 and 1.67E+05
MOLM-13 cells; 1uM, 8h
  Log2FC vs. DMSO, CDKN1A (Cyclin-dependent kinase inhibitor 1): 1.234
  Log2FC vs. DMSO, CSNK1A1 (Casein kinase I isoform alpha): -1.306
  TMT protein intensity, CDKN1A, replicate values: 7.09E+04 and 8.39E+04
  TMT protein intensity, CSNK1A1, replicate values: 1.62E+05 and 1.65E+05
MOLM-13 cells; 1uM, 24h
  Log2FC vs. DMSO, CDKN1A (Cyclin-dependent kinase inhibitor 1): 1.074
  Log2FC vs. DMSO, CSNK1A1 (Casein kinase I isoform alpha): -1.500
  TMT protein intensity, CDKN1A, replicate values: 7.28E+04 and 6.55E+04
  TMT protein intensity, CSNK1A1, replicate values: 1.44E+05 and 1.42E+05
MOLM-13 cells; 5 µM, 4 h
  Proteins significantly degraded (TMT proteomics): significant degradation of only three proteins out of over 9000 identified proteins was observed: CK1α, IKZF1, and IKZF3
MOLM-13 cells; 5uM, 4h
  Log2FC vs. DMSO, CDKN1A: 1.546
  Log2FC vs. DMSO, CSNK1A1: -1.318
MOLM-13 cells; 5uM, 8h
  Log2FC vs. DMSO, CDKN1A (Cyclin-dependent kinase inhibitor 1): 1.278
  Log2FC vs. DMSO, CSNK1A1 (Casein kinase I isoform alpha): -1.485
  TMT protein intensity, CDKN1A, replicate values: 8.76E+04 and 7.22E+04
  TMT protein intensity, CSNK1A1, replicate values: 1.51E+05 and 1.38E+05
MOLM-13 cells; 5uM, 24h
  Log2FC vs. DMSO, CDKN1A (Cyclin-dependent kinase inhibitor 1): 1.163
  Log2FC vs. DMSO, CSNK1A1 (Casein kinase I isoform alpha): -1.582
  TMT protein intensity, CDKN1A, replicate values: 7.42E+04 and 7.27E+04
  TMT protein intensity, CSNK1A1, replicate values: 1.48E+05 and 1.23E+05
MOLM-13 cells; 10uM, 4h
  Log2FC vs. DMSO, CDKN1A (Cyclin-dependent kinase inhibitor 1): 1.536
  Log2FC vs. DMSO, CSNK1A1 (Casein kinase I isoform alpha): -1.354
  TMT protein intensity, CDKN1A, replicate values: 1.01E+05 and 8.94E+04
  TMT protein intensity, CSNK1A1, replicate values: 1.47E+05 and 1.71E+05
CK1α; MOLM-13, 100 nM, 4 h
  CK1α degradation: near complete degradation of CK1α
CK1α; [1]
  DC50: 15 nM
